Measurements reported in PubChem BioAssay (NCI).
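Protocol summary: plate cells (96-well), add compound at 5 concentrations, incubate 48 h, interpolate endpoints linearly. Definition used: TGI = concentration required for complete inhibition of growth.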

How the values were obtained:
Experiment in all cases: NCI-60 cell line screen, 48 h
786-0 renal = system: 786-0 renal
A498 renal = system: A498 renal
A549 NSCLC = system: A549 NSCLC
ACHN renal = system: ACHN renal
BT-549 breast = system: BT-549 breast
CAKI-1 renal = system: CAKI-1 renal
CCRF-CEM leukemia = system: CCRF-CEM leukemia
COLO 205 colon = system: COLO 205 colon
DU-145 prostate = system: DU-145 prostate
HCT-116 colon = system: HCT-116 colon
HCT-15 colon = system: HCT-15 colon
HL-60(TB) leukemia = system: HL-60(TB) leukemia
HOP-62 NSCLC = system: HOP-62 NSCLC
HOP-92 NSCLC = system: HOP-92 NSCLC
HS 578T breast = system: HS 578T breast
HT29 colon = system: HT29 colon
IGROV1 ovarian = system: IGROV1 ovarian
K-562 leukemia = system: K-562 leukemia
KM12 colon = system: KM12 colon
LOX IMVI melanoma = system: LOX IMVI melanoma
M14 melanoma = system: M14 melanoma
MALME-3M melanoma = system: MALME-3M melanoma
MCF7 breast = system: MCF7 breast
MDA-MB-231 breast = system: MDA-MB-231 breast
MDA-MB-435 = system: MDA-MB-435
MOLT-4 leukemia = system: MOLT-4 leukemia
NCI-H226 lung = system: NCI-H226 lung
NCI-H23 lung = system: NCI-H23 lung
NCI-H460 lung = system: NCI-H460 lung
NCI-H522 lung = system: NCI-H522 lung
NCI/ADR-RES ovarian = system: NCI/ADR-RES ovarian
OVCAR-3 ovarian = system: OVCAR-3 ovarian
OVCAR-4 ovarian = system: OVCAR-4 ovarian
OVCAR-5 ovarian = system: OVCAR-5 ovarian
OVCAR-8 ovarian = system: OVCAR-8 ovarian
PC-3 prostate = system: PC-3 prostate
RPMI-8226 leukemia = system: RPMI-8226 leukemia
RXF 393 renal = system: RXF 393 renal
SF-268 CNS = system: SF-268 CNS
SF-295 CNS = system: SF-295 CNS
SF-539 CNS = system: SF-539 CNS
SK-MEL-2 melanoma = system: SK-MEL-2 melanoma
SK-MEL-28 melanoma = system: SK-MEL-28 melanoma
SK-MEL-5 melanoma = system: SK-MEL-5 melanoma
SK-OV-3 ovarian = system: SK-OV-3 ovarian
SN12C renal = system: SN12C renal
SNB-19 CNS = system: SNB-19 CNS
SNB-75 CNS = system: SNB-75 CNS
SR leukemia = system: SR leukemia
SW-620 colon = system: SW-620 colon
T-47D breast = system: T-47D breast
TK-10 renal = system: TK-10 renal
U251 CNS = system: U251 CNS
UACC-257 melanoma = system: UACC-257 melanoma
UACC-62 melanoma = system: UACC-62 melanoma
UO-31 renal = system: UO-31 renal
EKVX NSCLC = system: EKVX NSCLC
HCC-2998 colon = system: HCC-2998 colon
MDA-N = system: MDA-N

CCOC(=O)/C1=C(\C)N(c2ccc(C)cc2)C(=O)c2ccccc2C(=O)c2c(OC(C)=O)ccc(OC(C)=O)c21
TGI (786-0 renal): > 100 µM
TGI (A498 renal): > 100 µM
TGI (A549 NSCLC): > 100 µM
TGI (ACHN renal): 77.2 µM
TGI (BT-549 breast): 90.2 µM
TGI (CAKI-1 renal): 38.5 µM
TGI (CCRF-CEM leukemia): 26.2 µM
TGI (COLO 205 colon): 26.3 µM
TGI (DU-145 prostate): > 100 µM
TGI (HCT-116 colon): 35.9 µM
TGI (HCT-15 colon): 43.9 µM
TGI (HL-60(TB) leukemia): 54.4 µM
TGI (HOP-62 NSCLC): 87.3 µM
TGI (HOP-92 NSCLC): > 100 µM
TGI (HS 578T breast): 48.2 µM
TGI (HT29 colon): 35.7 µM
TGI (IGROV1 ovarian): 36.6 µM
TGI (K-562 leukemia): 38.7 µM
TGI (KM12 colon): 40.6 µM
TGI (LOX IMVI melanoma): 41.7 µM
TGI (M14 melanoma): 54.3 µM
TGI (MALME-3M melanoma): 72.6 µM
TGI (MCF7 breast): 97.7 µM
TGI (MDA-MB-231 breast): 83.9 µM
TGI (MDA-MB-435): 41.5 µM
TGI (MOLT-4 leukemia): 21.4 µM
TGI (NCI-H226 lung): 65.7 µM
TGI (NCI-H23 lung): 71.1 µM
TGI (NCI-H460 lung): 47.8 µM
TGI (NCI-H522 lung): 74.1 µM
TGI (NCI/ADR-RES ovarian): 53.9 µM
TGI (OVCAR-3 ovarian): 39.3 µM
TGI (OVCAR-4 ovarian): 54.2 µM
TGI (OVCAR-5 ovarian): > 100 µM
TGI (OVCAR-8 ovarian): > 100 µM
TGI (PC-3 prostate): > 100 µM
TGI (RPMI-8226 leukemia): 30.3 µM
TGI (RXF 393 renal): 92.9 µM
TGI (SF-268 CNS): > 100 µM
TGI (SF-295 CNS): 43.2 µM
TGI (SF-539 CNS): 69.1 µM
TGI (SK-MEL-2 melanoma): 82.7 µM
TGI (SK-MEL-28 melanoma): 12.2 µM
TGI (SK-MEL-5 melanoma): > 100 µM
TGI (SK-OV-3 ovarian): 70.9 µM
TGI (SN12C renal): 50.5 µM
TGI (SNB-19 CNS): 90.1 µM
TGI (SNB-75 CNS): > 100 µM
TGI (SR leukemia): 35.7 µM
TGI (SW-620 colon): > 100 µM
TGI (T-47D breast): 76.5 µM
TGI (TK-10 renal): 44.4 µM
TGI (U251 CNS): 97.9 µM
TGI (UACC-257 melanoma): 80.7 µM
TGI (UACC-62 melanoma): 42.1 µM
TGI (UO-31 renal): > 100 µM

CCOc1ccc(-c2nc(-c3oc4ccccc4c(=O)c3OC(C)=O)cs2)cc1
TGI (786-0 renal): > 10 µM
TGI (A549 NSCLC): > 10 µM
TGI (CAKI-1 renal): > 10 µM
TGI (CCRF-CEM leukemia): > 10 µM
TGI (COLO 205 colon): > 10 µM
TGI (DU-145 prostate): > 10 µM
TGI (EKVX NSCLC): > 10 µM
TGI (HCC-2998 colon): > 10 µM
TGI (HCT-15 colon): > 10 µM
TGI (HL-60(TB) leukemia): > 10 µM
TGI (HOP-62 NSCLC): > 10 µM
TGI (HT29 colon): > 10 µM
TGI (IGROV1 ovarian): > 10 µM
TGI (K-562 leukemia): > 10 µM
TGI (KM12 colon): > 10 µM
TGI (LOX IMVI melanoma): > 10 µM
TGI (M14 melanoma): > 10 µM
TGI (MALME-3M melanoma): > 10 µM
TGI (MCF7 breast): > 10 µM
TGI (MDA-MB-231 breast): > 10 µM
TGI (MDA-N): > 10 µM
TGI (MOLT-4 leukemia): > 10 µM
TGI (NCI-H23 lung): > 10 µM
TGI (OVCAR-8 ovarian): > 10 µM
TGI (PC-3 prostate): > 10 µM
TGI (RPMI-8226 leukemia): > 10 µM
TGI (RXF 393 renal): 7.21 µM
TGI (SF-268 CNS): > 10 µM
TGI (SF-295 CNS): > 10 µM
TGI (SK-MEL-28 melanoma): > 10 µM
TGI (SK-MEL-5 melanoma): > 10 µM
TGI (SK-OV-3 ovarian): > 10 µM
TGI (SN12C renal): > 10 µM
TGI (SNB-75 CNS): > 10 µM
TGI (SR leukemia): > 10 µM
TGI (SW-620 colon): > 10 µM
TGI (T-47D breast): > 10 µM
TGI (TK-10 renal): > 10 µM
TGI (UACC-257 melanoma): > 10 µM
TGI (UACC-62 melanoma): > 10 µM
